These are literature values, as cited in paper PMC11859340, “The Therapeutic Potential of Spirooxindoles in Cancer: A Focus on p53–MDM2 Modulation” (Pharmaceuticals, 2025).

Data set [1] relates to A549 (lung). Set-up: method as in PMID 29302672. The following applies: at 10 μM, CCK-8.
Data set [2] deals with MCF7 (breast). Set-up: method as in PMID 29302672. The following applies: at 10 μM, CCK-8.
The subject of data set [3] is HCT116 (colon). Set-up: method as in PMID 29302672. Conditions: at 10 μM, CCK-8.
Data set [4] has as its system PC-3 (prostate). Set-up: method as in PMID 30802707. The following applies: MTT; read-out: IC50 against PC-3.
Data set [5] has as its system HepG2 (liver). Set-up: method as in PMID 30802707. Conditions: MTT; read-out: IC50 against HepG2.
Data set [6] deals with VERO-B (normal) cells.
Data set [7] deals with HCT116 (colon). Set-up: method as in PMID 30802707. The following applies: MTT; read-out: IC50 against HCT116.
Data set [8] deals with HCT116 (p53^+/+). Set-up: method as in PMID 28987608. Conditions: MTT; read-out: IC50 against HCT116 (p53^+/+).
Data set [9] relates to MCF7. Set-up: method as in PMID 28987608. The following applies: MTT; read-out: IC50 against MCF7.
Data set [10] has as its system HEK 293T (embryonic kidney non-cancer). Set-up: method as in PMID 28987608. Conditions: MTT, read-out: IC50 against HEK 293T.
The test system of data set [11] is HCT116 (p53^−/−). Set-up: method as in PMID 28987608. The following applies: MTT; read-out: IC50 against HCT116 (p53^−/−).
The subject of data set [12] is MDA-MB-231 (breast). Set-up: method as in PMID 28987608. The following applies: MTT; read-out: IC50 against MDA-MB-231.
For data set [13], the system named is MCF7 (breast) cancer cell line. Set-up: method as in doi:10.1016/j.molstruc.2023.137026.
In data set [14] the test system is p53–MDM2. Set-up: method as in PMID 30458062.
Data set [15] concerns SK-OV-3 (ovarian cancer cell line with mutant p53). Set-up: method as in PMID 30458062. The following applies: read-out: IC50 against SK-OV-3.
In data set [16] the test system is SJSA-1 (osteosarcoma cancer cell line with wild p53). Set-up: method as in PMID 30458062. Conditions: read-out: IC50 against SJSA-1.
In data set [17] the test system is MCF7 “wild p53”. Set-up: method as in PMID 37731691. Conditions: MTT; read-out: IC50 against MCF7.
Data set [18] relates to MDA-MB-231 “mutant p53”. Set-up: method as in PMID 37731691. Conditions: MTT; read-out: IC50 against MDA-MB-231.
Data set [19] concerns HeLa (cervical). Set-up: method as in PMID 37935912. The following applies: SRB; read-out: IC50 against HeLa.
Data set [20] deals with A549 (lung). Set-up: method as in doi:10.1080/10426507.2020.1723590. The following applies: MTT; read-out: IC50 against A549.
In data set [21] the test system is HEK293T (embryonic kidney). Set-up: method as in doi:10.1080/10426507.2020.1723590. Conditions: MTT; read-out: IC50 against HEK293T.
For data set [22], the system named is PC3 (prostate). Set-up: method as in PMID 34684885. The following applies: MTT; read-out: IC50 against PC3.
For data set [23], the system named is HCT-116 (colon). Set-up: method as in PMID 36174446. The following applies: MTT; read-out: IC50 against HCT-116.
Data set [24] deals with MDA-MB-231 (breast). Set-up: method as in PMID 36174446. Conditions: MTT; read-out: IC50 against MDA-MB-231.
Data set [25] relates to PC3 (prostate). Set-up: method as in PMID 36174446. Conditions: MTT; read-out: IC50 against PC3.
Data set [26] has as its system HeLa (cervical). Set-up: method as in doi:10.31788/RJC.2023.1638506. The following applies: MTT; read-out: IC50 against HeLa.
Data set [27] relates to A549 (lung). Set-up: method as in PMID 36174446. The following applies: MTT; read-out: IC50 against A549.
Data set [28] deals with MCF7 (breast). Set-up: method as in doi:10.31788/RJC.2023.1638506. The following applies: MTT; read-out: IC50 against MCF7.
Data set [29] has as its system p53-wild-type MCF7 (breast cancer) cell line. Set-up: method as in PMID 33725632.
Data set [30] has as its system p53. Set-up: method as in doi:10.1080/10426507.2020.1723590.
In data set [31] the test system is MCF7 (breast). Set-up: method as in PMID 26256638. The following applies: MTT; read-out: IC50 against MCF7.
In data set [32] the test system is MDA-MB-231. Set-up: method as in doi:10.3390/separations10040225. Conditions: MTT; read-out: IC50 against MDA-MB-231.
In data set [33] the test system is PC3. Set-up: method as in doi:10.3390/separations10040225. Conditions: MTT; read-out: IC50 against PC3.
Data set [34] relates to HCT116 (colon). Set-up: method as in PMID 30508794. The following applies: MTT; read-out: IC50 against HCT116.
Data set [35] relates to HepG2 (liver). Set-up: method as in PMID 30508794. The following applies: MTT; read-out: IC50 against HepG2.
Details of data set [36]: method as in PMID 30508794. The following applies: MTT; read-out: IC50 against PC3.

Where two headings read alike, the source gives them in different places.

Regarding `CC(=O)N1C(=O)[C@@]2(S[C@@H](C(=O)c3ccccc3)[C@@H](O)C[C@@H]2c2ccccc2)c2c(Br)cccc21` [compound 147], the “% inhibition, A549” value in data set [1] is recorded as 70.3%. In data set [2], the “% inhibition, MCF7” value is recorded as 77.6%. The “% inhibition, HCT116” value in [3] is listed as 56.4%.
On to `O=C(/C=C/c1ccc(Cl)cc1Cl)[C@H]1[C@H](c2ccc(Cl)cc2Cl)C2CSCN2[C@]12C(=O)Nc1ccccc12` (stereo partly drawn) [49 (R = R^1 = 2,4-Cl2C6H3, R^2 = H)], for which the IC50 is 1.8 ± 0.3 µM in data set [4], 0.85 ± 0.2 µM in data set [5], 5 ± 0.245 µM in [6] and 2 ± 0.6 µM in [7].
Turning to `O=C1Nc2ccc(Cl)cc2C12N(c1ccccc1)N=C(c1ccccc1)N2c1cccc(Cl)c1` (stereo not drawn), the IC50 in [8] was 16.3 ± 0.2 µM; in data set [9] it was 9.8 ± 1.5 µM; in [10], over 100 µM; in [11] it was 17.9 ± 0.6 µM; in data set [12] it was 8.9 ± 1.9 µM.
One may read the cell viability as a per cent measure of how many cells are alive, often set against a control. Consider `CCCN1C(=O)[C@]2(N[C@@H](c3ccc(F)cc3)[C@@]3(Sc4c(C(=O)C(=O)OC)c5ccccc5n4C3=O)[C@H]2C(=O)OC)c2ccc(Cl)cc21`, for which the cell viability result in data set [13] (MCF7, at 25 μg/mL) is given as “about 80%”.
With `O=C(O)c1ccc(N2CC3C(C2=O)C(c2cccc(Cl)c2F)C2(C(=O)Nc4cc(Cl)ccc42)N3CC2CC2)cc1` (stereo not drawn) [compound 62], the IC50 in data set [14] was 0.004 µM; in data set [15], over 25 µM; in data set [16], 0.161 µM.
Consider `O=C1N(CCn2cc(CO)nn2)c2cc(Br)ccc2[C@]12[C@@H](c1ccccc1)C(c1ccccc1)=NN2c1ccccc1` [101 (X = (CH2)2)], for which the IC50 is 11.9 µM in [17] and 9.3 µM in [18].
Turning to `O=C1c2ccccc2OC12C(c1ccc(Cl)cc1)C1CCCCN1C21C(=O)Nc2ccccc21` (stereo not drawn) [77 (R = H)], the IC50 in data set [19] was 2.5 ± 0.3 µM.
For `CN1C[C@H](c2ccccc2Cl)[C@]2(NC(=S)N(CC34CC5CC(CC(C5)C3)C4)C2=O)[C@]12C(=O)Nc1ccc(Br)cc12` [89 (R = Br, R’ = 2-ClC6H4)], the IC50 in data set [20] was 7.2 ± 1.85 µM; in data set [21], 7.63 ± 0.75 µM.
As for `O=C1Nc2ccc(Br)cc2C12N(c1ccccc1Cl)N=C(c1cccc(Cl)c1)N2c1cccc(Cl)c1` (stereo not drawn), the IC50 was 13.9 ± 1.1 µM in data set [8]; 9.5 ± 3.1 µM in [9]; 21.4 ± 7.4 µM in data set [10]; 17.7 ± 1.3 µM in data set [11]; 7.6 ± 2.4 µM in data set [12].
`COc1cccc2c1C(=O)c1c(O)c3c(c(O)c1C2=O)C[C@@](O)(C(=O)CO)C[C@@H]3O[C@H]1C[C@H](N)[C@H](O)[C@H](C)O1` [doxorubicin, reference compound]: the IC50 was 1.9 ± 0.4 µM in [22]; 13.1 ± 2.1 µM in [23]; 5.82 ± 0.4 µM in [24]; 8.8 ± 0.3 µM in data set [25]; 65.3 µM in [26]; 11.5 ± 0.8 µM in [27]. In [28], the IC50 is 59.4 µM.
Regarding `Cc1noc([C@@H]2[C@@H](c3ccccc3)[C@H](C(F)(F)F)N[C@@]23C(=O)Nc2cc(Cl)ccc23)c1[N+](=O)[O-]`, the figures for the IC50 in data set [29] (absence of Fer-1) and in data set [29] (presence of Fer-1) were 0.12 µM and 13.5 µM, respectively.
In the case of `O=C(O)c1ccc([C@H]2C[C@H]3[C@@H](N2)[C@H](c2cccc(Cl)c2F)C2(C(=O)Nc4cc(Cl)ccc42)N3CC2CC2)cc1` (stereo partly drawn) [compound 52, reference compound], the IC50 in [14] was 0.004 µM; in [15] it was over 25 µM; in data set [16], 0.471 µM.
As for `CC(C)(C)OC(=O)N1CCC(c2nc(/C=C3\CCC4(C3=O)C3CCCCN3C3(C(=O)Nc5ccccc53)C4c3csc(C4CCN(C(=O)OC(C)(C)C)CC4)n3)cs2)CC1` (stereo not drawn), the results for the IC50 in data set [26] and in [28] were 76.3 µM and 63.4 µM, respectively.
Consider `CN1CC2(NC(=S)N(CC34CC5CC(CC(C5)C3)C4)C2=O)C2(C1)C(=O)Nc1ccccc12` (stereo not drawn) [92 (R = H, R’ = Me)], for which the p53 reporter activation in data set [30] (A549, 1.56 to 100 μM compound concentrations) was 1.06 to 4.39 folds.
With `CN1C[C@H](c2cccc(F)c2)[C@@H](C(=O)C2CC[C@H]3[C@@H]4CC=C5C[C@@H](O)CC[C@]5(C)[C@H]4CC[C@]23C)[C@]12C(=O)Nc1ccccc12` (stereo partly drawn) [23 (R = 3-FC6H4)], the IC50 in [31] is 4.6 ± 0.7 µM.
Consider `O=C(c1nc2ccccc2[nH]1)[C@H]1[C@H](c2cccs2)C2CC3CCCCC3N2[C@]12C(=O)Nc1ccc(Cl)cc12` (stereo partly drawn) [39 (R = 2-thienyl)], for which the results for the IC50 in data set [32] and in [33] were 3.8 ± 0.205 µM and 4.314 ± 0.036 µM, respectively.
`Cc1noc([C@@H]2[C@@H](c3ccccc3)[C@H](C(F)(F)F)N[C@@]23C(=O)Nc2cc(Br)ccc23)c1[N+](=O)[O-]`: the results for the IC50 in data set [29] (absence of Fer-1) and in data set [29] (presence of Fer-1) were 0.17 µM and 13.7 µM, respectively.
As to `CCCN1C(=O)[C@]2(N[C@@H](c3ccccc3)[C@@]3(Sc4c(C(=O)C(=O)OC)c5ccccc5n4C3=O)[C@H]2C(=O)OC)c2ccc(Cl)cc21`, in data set [13] (MCF7, at 200 μg/mL), the cell viability is recorded as 80%.
With `O=C(O)c1ccc(N2CCC3C(C2=O)C(c2cccc(Cl)c2F)C2(C(=O)Nc4cc(Cl)ccc42)N3CC2CC2)cc1` (stereo not drawn) [compound 63], the IC50 in data set [14] is 0.004 µM; in [15], over 25 µM; in [16], 0.547 µM.
For `O=C(c1ccc(Br)cc1)[C@@H]1S[C@@]2(C(=O)Nc3cccc(Br)c32)[C@@H](c2ccccc2)C[C@@H]1O` [146 (R^1/R^2/R^3 = 4-Br, 4-BrC6H4, Ph)], the “% inhibition, A549” value in data set [1] is 86.9%. Moreover, in [2], the “% inhibition, MCF7” value was 50.9%. Besides, the “% inhibition, HCT116” value in data set [3] is 81.7%.
On to `O=C1/C(=C/c2ccccc2)CCC[C@@]12[C@H](c1ccccc1)[C@H]1C[C@@H]3CCCC[C@@H]3N1[C@]21C(=O)Nc2cc(Cl)ccc21` [70 (R = Ph, R’ = 6-Cl)], for which the IC50 in data set [22] is 3.7 ± 1 µM.
On to `CN1CC2(NC(=S)N(CC34CC5CC(CC(C5)C3)C4)C2=O)C2(C1)C(=O)Nc1ccc(Cl)cc12` (stereo not drawn) [92 (R = Cl, R’ = Me)], for which the IC50 in data set [20] is 5 ± 0.6 µM; in [21], 2.8 ± 0.3 µM.
Consider `O=C(c1c[nH]c2ccccc12)C1C(c2ccc(C(F)(F)F)cc2)C2CSCN2C12C(=O)Nc1ccccc12` (stereo not drawn) [51 (R = 4-F3CC6H4)], for which the IC50 in data set [34] is 7 ± 0.27 µM; in [35], 5.5 ± 0.2 µM; in [36] it was 6 ± 0.23 µM.
Turning to `CN1C[C@H](c2ccc(Cl)cc2)[C@]2(NC(=S)N(CC34CC5CC(CC(C5)C3)C4)C2=O)[C@]12C(=O)Nc1ccc(Br)cc12` [89 (R = Br, R’ = 4-ClC6H4)], in data set [30] (A549, at 100 μM), the p53 receptor activation is on record as 2.03 fold.
